In patent US20260217701A1, “SELECTIVE BET INHIBITORS AND USES THEREOF” (Tay Therapeutics Limited, priority 2022, published 2026):
Where “and” joins values, the source holds several entries; their conditions need not be identical. Equal entries are not always repeated.

System: collagen-induced arthritis
Assay: Collagen-induced arthritis (CIA) model: clinical scores and paw volume; on Animal paw volume percent change (%): reference of the scale not given here; on Average animal paw volume percent change (%): reference of the scale not given here
Assay type: in vivo, Lewis rats
Conditions: for Overall Clinical Score: individual animals 1-8; for Animal paw volume percent change (%): individual animals
[1] = Day 12, CIA + Compound A 10 mg/kg
[2] = Day 13, L paw, group 5 CIA + Compound A 1 mg/kg
[3] = Day 13, L paw, group 6 CIA + Compound A 3 mg/kg
[4] = Day 13, L paw, group 7 CIA + Compound A 10 mg/kg
[5] = Day 13, R paw, group 5 CIA + Compound A 1 mg/kg
[6] = Day 13, R paw, group 6 CIA + Compound A 3 mg/kg
[7] = Day 13, R paw, group 7 CIA + Compound A 10 mg/kg
[8] = Day 13, CIA + Compound A 1 mg/kg
[9] = Day 13, CIA + Compound A 3 mg/kg
[10] = Day 13, CIA + Compound A 10 mg/kg
[11] = Day 14, L paw, group 5 CIA + Compound A 1 mg/kg
[12] = Day 14, L paw, group 6 CIA + Compound A 3 mg/kg
[13] = Day 14, L paw, group 7 CIA + Compound A 10 mg/kg
[14] = Day 14, R paw, group 5 CIA + Compound A 1 mg/kg
[15] = Day 14, R paw, group 6 CIA + Compound A 3 mg/kg
[16] = Day 14, R paw, group 7 CIA + Compound A 10 mg/kg
[17] = Day 14, CIA + Compound A 1 mg/kg
[18] = Day 14, CIA + Compound A 3 mg/kg
[19] = Day 14, CIA + Compound A 10 mg/kg
[20] = Day 15, L paw, group 5 CIA + Compound A 1 mg/kg
[21] = Day 15, L paw, group 6 CIA + Compound A 3 mg/kg
[22] = Day 15, L paw, group 7 CIA + Compound A 10 mg/kg
[23] = Day 15, R paw, group 5 CIA + Compound A 1 mg/kg
[24] = Day 15, R paw, group 6 CIA + Compound A 3 mg/kg
[25] = Day 15, R paw, group 7 CIA + Compound A 10 mg/kg
[26] = Day 15, CIA + Compound A 1 mg/kg
[27] = Day 15, CIA + Compound A 3 mg/kg

Cn1cc(-c2ccccc2)c(-c2cn(C)c(=O)c3[nH]c(-c4cnn(C(F)(F)F)c4)cc23)cc1=O [Compound A, 6-methyl-4-(1-methyl-2-oxo-5-phenyl-1,2-dihydropyridin-4-yl)-2-(1-(trifluoromethyl)-1H-pyrazol-4-yl)-1,6-dihydro-7H-pyrrolo[2,3-c]pyridin-7-one]
Average detailed clinical score, left forelimb [1]: 0.00 | Average detailed clinical score, left hind limb [1]: 0.00 | Average detailed clinical score, right forelimb [1]: 0.00 | Average detailed clinical score, right hind limb [1]: 0.13 | Average detailed clinical score, score [1]: 0.13 | Average overall clinical score [1]: 0 | Average animal paw volume [2]: 1.42 mL | Average animal paw volume percent change (%) [2]: 7.45% | Average animal paw volume [3]: 1.40 mL | Average animal paw volume percent change (%) [3]: 6.55% | Average animal paw volume [4]: 1.41 mL | Average animal paw volume percent change (%) [4]: 7.21% | Average animal paw volume [5]: 1.43 mL | Average animal paw volume percent change (%) [5]: 7.62% | Average animal paw volume [6]: 1.40 mL | Average animal paw volume percent change (%) [6]: 6.26% | Average animal paw volume [7]: 1.41 mL | Average animal paw volume percent change (%) [7]: 7.41% | Average detailed clinical score, left forelimb [8]: 0 | Average detailed clinical score, left hind limb [8]: 0 | Average detailed clinical score, right forelimb [8]: 0 | Average detailed clinical score, right hind limb [8]: 0 | Average detailed clinical score, score [8]: 0 | Average overall clinical score [8]: 0 | Overall Clinical Score (Day 13, CIA + Compound A 1 mg/kg, 1 mg/kg): 0 (6×) and 2 and 1 | Average detailed clinical score, left forelimb [9]: 0 | Average detailed clinical score, left hind limb [9]: 0 | Average detailed clinical score, right forelimb [9]: 0 | Average detailed clinical score, right hind limb [9]: 0 | Average detailed clinical score, score [9]: 0 | Average overall clinical score [9]: 0 | Overall Clinical Score (Day 13, CIA + Compound A 3 mg/kg, 3 mg/kg): 0 | Average detailed clinical score, left forelimb [10]: 0 | Average detailed clinical score, left hind limb [10]: 0.125 | Average detailed clinical score, right forelimb [10]: 0.125 | Average detailed clinical score, right hind limb [10]: 0.25 | Average detailed clinical score, score [10]: 0.5 | Average overall clinical score [10]: 1 | Average animal paw volume [11]: 1.53 mL | Average animal paw volume percent change (%) [11]: 15.36% | Average animal paw volume [12]: 1.44 mL | Average animal paw volume percent change (%) [12]: 9.64% | Average animal paw volume [13]: 1.44 mL | Average animal paw volume percent change (%) [13]: 9.68% | Average animal paw volume [14]: 1.49 mL | Average animal paw volume percent change (%) [14]: 11.73% | Average animal paw volume [15]: 1.45 mL | Average animal paw volume percent change (%) [15]: 10.16% | Average animal paw volume [16]: 1.44 mL | Average animal paw volume percent change (%) [16]: 9.90% | Average detailed clinical score, left forelimb [17]: 0 | Average detailed clinical score, left hind limb [17]: 1 | Average detailed clinical score, right forelimb [17]: 0 | Average detailed clinical score, right hind limb [17]: 0 | Average detailed clinical score, score [17]: 1 | Average overall clinical score [17]: 1 | Overall Clinical Score (Day 14, CIA + Compound A 1 mg/kg, 1 mg/kg): 0 (3×) and 2 (2×) and 1 (3×) | Average detailed clinical score, left forelimb [18]: 0 | Average detailed clinical score, left hind limb [18]: 0 | Average detailed clinical score, right forelimb [18]: 0 | Average detailed clinical score, right hind limb [18]: 0 | Average detailed clinical score, score [18]: 1 | Average overall clinical score [18]: 1 | Overall Clinical Score (Day 14, CIA + Compound A 3 mg/kg, 3 mg/kg): 0 | Average detailed clinical score, left forelimb [19]: 0 | Average detailed clinical score, left hind limb [19]: 0.25 | Average detailed clinical score, right forelimb [19]: 0 | Average detailed clinical score, right hind limb [19]: 0.375 | Average detailed clinical score, score [19]: 0.625 | Average overall clinical score [19]: 1 | Average animal paw volume [20]: 1.64 mL | Average animal paw volume percent change (%) [20]: 24.11% | Average animal paw volume [21]: 1.54 mL | Average animal paw volume percent change (%) [21]: 16.70% | Average animal paw volume [22]: 1.54 mL | Average animal paw volume percent change (%) [22]: 16.95% | Animal paw volume percent change (%) (Day 15, L paw, group 5 CIA + Compound A 1 mg/kg, 1 mg/kg): 10.73% and 42.25% and 30.26% and 23.40% and 10.86% and 24.91% and 44.53% | Animal paw volume percent change (%) (Day 15, L paw, group 6 CIA + Compound A 3 mg/kg, 3 mg/kg): 12.93% and 23.35% and 12.17% and 8.79% and 18.01% and 25.47% | Average animal paw volume [23]: 1.58 mL | Average animal paw volume percent change (%) [23]: 19.02% | Average animal paw volume [24]: 1.51 mL | Average animal paw volume percent change (%) [24]: 14.88% | Average animal paw volume [25]: 1.50 mL | Average animal paw volume percent change (%) [25]: 14.23% | Animal paw volume percent change (%) (Day 15, R paw, group 5 CIA + Compound A 1 mg/kg, 1 mg/kg): 8.43% and 39.77% and 13.09% and 24.15% and 10.33% and 30.42% and 20.00% | Animal paw volume percent change (%) (Day 15, R paw, group 6 CIA + Compound A 3 mg/kg, 3 mg/kg): 4.53% and 9.73% and 9.81% and 5.20% and 34.75% and 17.23% | Average detailed clinical score, left forelimb [26]: 0 | Average detailed clinical score, left hind limb [26]: 1 | Average detailed clinical score, right forelimb [26]: 0 | Average detailed clinical score, right hind limb [26]: 1 | Average detailed clinical score, score [26]: 2 | Average overall clinical score [26]: 2 | Overall Clinical Score (Day 15, CIA + Compound A 1 mg/kg, 1 mg/kg): 0 (3×) and 4 and 3 (3×) and 2 | Average detailed clinical score, left forelimb [27]: 0 | Average detailed clinical score, left hind limb [27]: 1 | Average detailed clinical score, right forelimb [27]: 0 | Average detailed clinical score, right hind limb [27]: 1
